This note sets out measurements from paper PMC11306511, “Combining VPS34 inhibitors with STING agonists enhances type I interferon signaling and anti‐tumor efficacy” (Molecular Oncology, 2024).

The experiment has as its system Renca tumors. In words: NanoString gene expression and network enrichment analysis of Renca tumors. The class given is in vivo, mouse. From the text: Study protocols were approved by the Institutional Animal Care and Use Committee of CrownBio in China (AN‐1903‐05‐313) or the LIH's animal welfare committee in Luxembourg (agreement LECR‐2018‐12). Mice were handled according to European Union guidelines, adhering to the principles of replacement, reduction, and refinement (3Rs). Animals were housed in appropriate accommodations conducive to their well‐being, with provisions for housing, feeding, and environmental enrichment to meet their physical and behavioral needs. Highly skilled personnel were involved in carrying out procedures related to the animal experiments to ensure proper care and handling. Female 6 to 8‐week‐old BALB/c (supplied by Shanghai Lingchang Biotechnology Co., Shanghai, China; n = 14) or C57BL/6 mice (supplied by Janvier Labs, Le Genest‐Saint‐Isle, France; n = 40) were injected into the right flank with 1 × 10^6 Renca or 0.2 × 10^6 B16‐F10 cells, respectively, resuspended in 100 μL PBS (day 0). When tumors were palpable (day 9 for Renca, day 7 for B16‐F10 tumors), mice were randomly assigned into two groups for the Renca model with n = 6 (vehicle) and n = 8 (SB02024) or four groups for the B16‐F10 model with n = 10. Daily treatment with 20 mg·kg^−1 SB02024 or vehicle (0.5% methylcellulose in water supplemented with 1% Tween‐80) was administered by oral gavage (day 9–16 for Renca, day 7–16 for B16‐F10 model). For combination studies, ADU‐S100 (10 μg in 40–50 μL PBS) or vehicle (PBS) treatment was administered by intratumoral injection (days 9, 11, 13, and 15). Tumor growth was measured using a caliper every other day and estimated as follows: volume (cm^3) = (width)^2 × length × 0.5.
Renca tumor RNA was isolated using the Rneasy Plus kit (#74134; Qiagen, Venlo, the Netherlands), quantified using a NanoDrop spectrophotometer (Thermo Fisher), and 100 ng was used as input for the nCounter PanCancer IO 360 mouse panel (NanoString Technologies, Seattle, WA, USA). Data were analyzed by NanoString's data analysis service. Network enrichment analysis (NEA) was carried out by Evi‐networks, Sweden (see detailed description in Table S2).

The mark [1] stands for this setting: 20 mg·kg^−1, NanoString, vs vehicle.

The structures appear in SMILES notation.

Regarding `C[C@@H]1COCCN1c1cc(N2CCCC[C@@H]2C(F)(F)F)[nH]c(=O)c1` [SB02024], under setting [1], the “Ptprc gene expression (CD45+ cells) in Renca tumors” value is reported as “significantly increased”; the “gene signatures for cytotoxic cells, T cells, total and CD56dim NK cells, macrophages, neutrophils” value is listed as “significant increase”. Further, the “Reactome gene signature for STING-mediated signaling, enrichment” value (NEA, r-mmu-3134975 as printed, treated tumors vs vehicle controls) was “enrichment”. Further, the “STAT1 and IFN gene signature for ICB sensitivity (Zemek et al.), enrichment” value (NEA, treated tumors vs vehicle controls) is recorded as “significantly enriched”.
